One assay addresses T1, cloned human V1a receptor (Homo sapiens, UniProt P37288).
T1 construct: host or cells: human brain astrocytoma 1321N1 cells
The assay can be described thus: in vitro functional calcium mobilisation assay (FLIPR), antagonist activity, 1321N1 cells, 250 pM AVP. The class given is cell-based. Particulars: functional pKi derived from pIC50 (Equation 1), FLIPR Ca2+ mobilisation, 1321N1 cells expressing cloned human V1a receptor. How it is done:
The primary assay which may be used to determine the ability of the compounds of formula (1) to inhibit the vasopressin V1a receptor is an in vitro functional calcium mobilisation assay (FLIPR) that measures antagonist activity at a cloned human V1a receptor. The assay is described below.
The antagonist activity of compounds of formula (1) were determined in a Calcium (Ca2+) mobilisation assay using whole cells (human brain astrocytoma 1321N1 cells, ex Perkin Elmer) genetically modified to stably express a cloned human V1a receptor. Dose response curves were determined by displacement of a single concentration of agonist (250 pM AVP, ex Sigma) with increasing concentrations of compound. A pIC50 value is determined by non-linear regression to a 4-parameter logistic equation and a functional pKi (fpKi) derived using Equation 1.
where A=agonist single conc, and A50=the agonist EC50.
T1 sequence (P37288 whole entry): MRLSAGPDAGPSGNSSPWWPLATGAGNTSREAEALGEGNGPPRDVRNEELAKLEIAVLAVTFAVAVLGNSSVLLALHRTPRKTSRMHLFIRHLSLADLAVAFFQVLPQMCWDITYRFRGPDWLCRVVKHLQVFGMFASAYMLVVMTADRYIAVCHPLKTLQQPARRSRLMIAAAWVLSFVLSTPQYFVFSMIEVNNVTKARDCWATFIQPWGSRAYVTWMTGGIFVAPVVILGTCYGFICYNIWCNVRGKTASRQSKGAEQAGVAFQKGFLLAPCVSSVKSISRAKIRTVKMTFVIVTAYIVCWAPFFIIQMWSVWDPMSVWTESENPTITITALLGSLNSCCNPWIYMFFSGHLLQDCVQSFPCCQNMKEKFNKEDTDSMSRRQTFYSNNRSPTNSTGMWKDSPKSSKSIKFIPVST
Take “(5H,11H-Benzo[e]pyrrolo[1,2-a][1,4]diazepin-10-yl)-[1-(2-nitro-phenyl)-piperidin-4-yl]-methanone [Example 172]”: the “Mean fpKi (Human V1a)” value was found to be 7.35.

Still in this assay, the particulars now being: functional pKi derived from pIC50 (Equation 1), FLIPR Ca2+ mobilisation, 1321N1 cells expressing cloned human V1a receptor, read-out: Mean fpKi (Human V1a) (converted).
Regarding `Cc1ccc(N2CCC(C(=O)N3CCc4nc(C)[nH]c4-c4cc(Cl)ccc43)CC2)nc1` [Example 45, (9-Chloro-2-methyl-4,5-dihydro-1H-1,3,6-triaza-benzo[e]azulen-6-yl)-(5′-methyl-3,4,5,6-tetrahydro-2H-[1,2′]bipyridinyl-4-yl)-methanone], the Ki was 6.31 nM.

Turning to `CCCc1nc2c([nH]1)-c1cc(C)ccc1N(C(=O)C1CCN(c3cc(C)ccn3)CC1)CC2` [Example 22], the Ki is 2.04 nM.

Turning to `O=C(C1CCN(c2ccccn2)CC1)N1CCc2nc(-c3ccccc3)[nH]c2-c2cc(Cl)ccc21` [Example 53], the Ki is 64.6 nM.

Turning to `O=C(C1CCN(c2nccc(C(F)(F)F)n2)CC1)N1Cc2cnn(C3CCCCC3)c2Nc2ccccc21` [Example 99], the Ki was 35.5 nM.

For `Nc1ccc(N2CCC(C(=O)N3Cc4cccn4Cc4ccccc43)CC2)cc1` [Example 176], the Ki is 2.51 nM.

For `O=C(C1CCN(c2ccc(C(F)(F)F)cc2)CC1)N1Cc2cccn2Cc2ccccc21` [Example 169], the Ki is 30.9 nM.

`N#Cc1ccc(N2CCC(C(=O)N3Cc4cccn4Cc4ccccc43)CC2)cc1` [Example 171]: the Ki was 214 nM.

`Cc1nc2c([nH]1)-c1cc(Cl)ccc1N(C(=O)C1CCN(c3ccc(Cl)cc3)CC1)CC2` [Example 88]: the Ki was 6.17 nM.

As for `O=C(C1CCN(c2ccccn2)CC1)N1CCc2nc(N3CCOCC3)[nH]c2-c2ccccc21` [Example 9], the Ki is 18.2 nM.

For the compound `Cc1cccc(N2CCC(C(=O)N3CCc4nc(N5CCOCC5)[nH]c4-c4cc(F)ccc43)CC2)n1` [Example 5, (9-Fluoro-2-morpholin-4-yl-4,5-dihydro-1H-1,3,6-triaza-benzo[e]azulen-6-yl)-(6′-methyl-3,4,5,6-tetrahydro-2H-[1,2′]bipyridinyl-4-yl)-methanone], the Ki was 1.78 nM.

Turning to `COc1ccc(N2CCC(C(=O)N3CCc4nc(C5CCOCC5)[nH]c4-c4cc(C)ccc43)CC2)nc1` [Example 42], the Ki is 5.62 nM.

As for `CCc1nc2c([nH]1)-c1cc(Cl)ccc1N(C(=O)C1CCN(c3ccccc3)CC1)CC2` [Example 73], the Ki was 6.17 nM.

Take `O=C(C1CCN(c2ccccn2)CC1)N1CCc2nc(C3CC3)[nH]c2-c2cc(Cl)ccc21` [Example 48]: the Ki is 10.2 nM.

For `O=C(C1CCN(c2cccc(-c3ccccc3)c2)CC1)N1Cc2cccn2Cc2ccccc21` [Example 168], the Ki is 151 nM.

For the compound `CCc1ccc(N2CCC(C(=O)N3Cc4cccn4Cc4ccccc43)CC2)cc1` [Example 165], the Ki was 1.55 nM.

As to `CCn1ncc2c1Nc1cc(Cl)ccc1N(C(=O)C1CCN(c3ncccc3C)CC1)C2` [Example 120], the Ki was 0.912 nM.

`COc1cccc(N2CCC(C(=O)N3Cc4cccn4Cc4ccccc43)CC2)c1` [Example 163]: the Ki is 5.62 nM.

For `Cc1ccc(N2CCC(C(=O)N3Cc4cnn(C)c4Nc4cc(Cl)ccc43)CC2)cc1` [Example 136], the Ki is 0.617 nM.

In the case of `Cc1ccc(N2CCC(C(=O)N3Cc4cccn4Cc4ccccc43)CC2)nc1` [Example 145], the Ki is 15.1 nM.

With `Cc1ccc2c(c1)-c1[nH]c(C3CCOCC3)nc1CCN2C(=O)C1CCN(c2ncccc2C)CC1` [Example 37], the Ki is 4.37 nM.

As to `Cc1ccc(N2CCC(C(=O)N3CCc4nc(N5CCOCC5)[nH]c4-c4ccccc43)CC2)nc1` [Example 12], the Ki was 2.14 nM.

As to `Cc1ccc(N2CCC(C(=O)N3CCc4nc(N5CCOCC5)[nH]c4-c4cc(Cl)ccc43)CC2)nc1` [Example 59], the Ki is 0.794 nM.

Take `O=C(C1CCN(c2ccccn2)CC1)N1Cc2cccn2Cc2ccccc21` [Example 144]: the Ki is 3.16 nM.

With `O=C(C1CCN(c2ccccn2)CC1)N1CCc2nc(-c3ccccc3F)[nH]c2-c2cc(Cl)ccc21` [Example 54], the Ki was 75.9 nM.

Regarding `CCc1ccc(N2CCC(C(=O)N3CCc4nc(C)[nH]c4-c4cc(Cl)ccc43)CC2)cc1` [Example 95], the Ki was 3.16 nM.

As for `O=C(C1CCN(c2ccc(Cl)cc2)CC1)N1Cc2cccn2Cc2ccccc21` [Example 158], the Ki was 4.79 nM.

With `Cc1ccc2c(c1)-c1[nH]c(N3CCOCC3)nc1CCN2C(=O)C1CCN(c2ccc(C(F)(F)F)cn2)CC1` [Example 35], the Ki was 7.08 nM.

With `Cc1ccc(N2CCC(C(=O)N3CCc4nc(N5CCOCC5)[nH]c4-c4cc(C)ccc43)CC2)nc1` [Example 1, (9-Methyl-2-morpholin-4-yl-4,5-dihydro-1H-1,3,6-triaza-benzo[e]azulen-6-yl)-(5′-methyl-3,4,5,6-tetrahydro-2H-[1,2′]bipyridinyl-4-yl)-methanone], the Ki was 0.977 nM.

In the case of `Cc1cccc(N2CCC(C(=O)N3Cc4cnn(C)c4Nc4cc(Cl)ccc43)CC2)n1` [Example 125], the Ki is 5.89 nM.

For `Cc1ccc(N2CCC(C(=O)N3Cc4cnn(C)c4Nc4cc(Cl)ccc43)CC2)cn1` [Example 142], the Ki was 2.88 nM.

`CCCc1nc2c([nH]1)-c1cc(C)ccc1N(C(=O)C1CCN(c3ccc(C)cn3)CC1)CC2` [Example 23]: the Ki is 2.14 nM.

Turning to `CCCc1nc2c([nH]1)-c1cc(C)ccc1N(C(=O)C1CCN(c3ccccn3)CC1)CC2` [Example 20], the Ki was 12.3 nM.

Turning to `Cc1ccc(N2CCC(C(=O)N3Cc4cnn(C)c4Nc4cc(Cl)ccc43)CC2)nc1` [Example 118], the Ki was 1.74 nM.

`O=C(C1CCN(c2ccccn2)CC1)N1Cc2cccn2Cc2cc(F)ccc21` [Example 150]: the Ki was 1.91 nM.

`Nc1ccccc1N1CCC(C(=O)N2Cc3cccn3Cc3ccccc32)CC1` [Example 175, [1-(2-Amino-phenyl)-piperidin-4-yl]-(5H,11H-benzo[e]pyrrolo[1,2-a][1,4]diazepin-10-yl)-methanone]: the Ki was 3.98 nM.

With `Cc1ccc(N2CCC(C(=O)N3CCc4nc(C5CCOCC5)[nH]c4-c4cc(C)ccc43)CC2)nc1` [Example 39], the Ki is 2 nM.

With `CCc1cnc(N2CCC(C(=O)N3Cc4cnn(-c5ccccc5)c4Nc4cc(Cl)ccc43)CC2)nc1` [Example 105], the Ki is 13.8 nM.

For `Cc1ccc(N2CCC(C(=O)N3CCc4nc(N5CCOCC5)[nH]c4-c4cc(F)ccc43)CC2)nc1` [Example 16], the Ki is 2.95 nM.

Turning to `Cc1ccnc(N2CCC(C(=O)N3CCc4nc(N5CCOCC5)[nH]c4-c4cc(F)ccc43)CC2)c1` [Example 15], the Ki is 1.95 nM.

Take `CN1CCN(c2nc3c([nH]2)-c2cc(Cl)ccc2N(C(=O)C2CCN(c4ccccc4)CC2)CC3)CC1` [Example 78]: the Ki is 8.71 nM.

On to `Cc1ccc2c(c1)-c1[nH]c(C3CCOCC3)nc1CCN2C(=O)C1CCN(c2cccc(C)n2)CC1` [Example 65], for which the Ki was 7.59 nM.

With `CC(C)c1ccc(N2CCC(C(=O)N3Cc4cccn4Cc4ccccc43)CC2)cc1` [Example 167], the Ki is 3.63 nM.

Turning to `Cc1ccc2c(c1)-c1[nH]c(N3CCOCC3)nc1CCN2C(=O)C1CCN(c2cccc(C)n2)CC1` [Example 63], the Ki was 1.86 nM.

As for `Cn1ncc2c1Nc1cc(Cl)ccc1N(C(=O)C1CCN(c3ncccn3)CC1)C2` [Example 103, (6-Chloro-3-methyl-4,10-dihydro-3H-2,3,4,9-tetraaza-benzo[f]azulen-9-yl)-(1-pyrimidin-2-yl-piperidin-4-yl)-methanone], the Ki was 75.9 nM.

Consider `Cc1ccc2c(c1)Nc1c(cnn1C)CN2C(=O)C1CCN(c2ncccc2C)CC1` [Example 110], for which the Ki is 4.57 nM.

With `Cc1ccc2c(c1)-c1[nH]c(C3CC3)nc1CCN2C(=O)C1CCN(c2ccccn2)CC1` [Example 24], the Ki is 8.71 nM.

`O=C(C1CCN(c2cnccn2)CC1)N1Cc2cccn2Cc2ccccc21` [Example 148]: the Ki is 28.2 nM.

On to `COc1ccnc(N2CCC(C(=O)N3CCc4nc(C5CCOCC5)[nH]c4-c4cc(C)ccc43)CC2)c1` [Example 41], for which the Ki is 2.34 nM.

As to `CCn1ncc2c1Nc1cc(Cl)ccc1N(C(=O)C1CCN(c3ccc(C)cn3)CC1)C2` [Example 122], the Ki was 0.603 nM.

On to `O=C(C1CCN(c2ccccn2)CC1)N1CCc2nc(N3CCOCC3)[nH]c2-c2cc(Cl)ccc21` [Example 57], for which the Ki is 2.51 nM.

On to `Cc1ccc(N2CCC(C(=O)N3CCc4nc(C)[nH]c4-c4cc(Cl)ccc43)CC2)cc1` [Example 91], for which the Ki is 1.26 nM.

For `Cc1cccc(N2CCC(C(=O)N3Cc4cccn4Cc4ccccc43)CC2)c1` [Example 160], the Ki is 3.16 nM.

As to `Cc1ccnc(N2CCC(C(=O)N3Cc4cnn(C)c4Nc4cc(Cl)ccc43)CC2)c1` [Example 117], the Ki is 2 nM.

On to `Cc1ccc(N2CCC(C(=O)N3CCc4nc(N5CCCC5)[nH]c4-c4cc(C)ccc43)CC2)nc1` [Example 43], for which the Ki is 7.59 nM.

For `COc1ccc(N2CCC(C(=O)N3Cc4cnn(C)c4Nc4cc(Cl)ccc43)CC2)cc1` [Example 138], the Ki is 2.63 nM.

`O=C(C1CCN(c2ccccc2)CC1)N1CCc2nc(C3CCCCC3)[nH]c2-c2cc(Cl)ccc21` [Example 76]: the Ki is 28.2 nM.

On to `Cc1ccnc(N2CCC(C(=O)N3CCc4nc(N5CCOCC5)[nH]c4-c4cc(C)ccc43)CC2)c1` [Example 32], for which the Ki was 1.58 nM.

`Cn1ncc2c1Nc1ccccc1N(C(=O)C1CCN(c3ncccn3)CC1)C2` [Example 98]: the Ki was 141 nM.

The record behind these values is patent publication US20110312941A1, “1,4-DISUBSTITUTED PIPERIDINES AS VASOPRESSIN RECEPTOR VIA ANTAGONISTS” (VANTIA LIMITED, priority 2009, published 2011).
